Measured values reported in patent publication US4576947A, “Pharmaceutical compositions” (Hoechst Aktiengesellschaft, priority 1972, dated 1986).

How the values were obtained:
[1] = background statement, in words; cited from earlier work
[2] = tested on: rate of blood circulation; settings: background statement, in words; cited from earlier work
[3] = tested on: cerebral blood flow of cats; assay: Investigation of cerebral blood flow of cats (heat-conducting thermoprobe according to Hensel); format: in vivo; settings: for Change of blood perfusion half-value time: action time; for Change of blood perfusion Δ λ: heat transfer factor λ
Protocol: The test animals are cats under chloralose urethane narcosis (70+200 mg/kg i.p.). The top of the skull is opened in the area of the frontal gyrus marginalis or suprasylvicus. […] The action time is given as the half value time and the intensity of action is determined according to Golenhofen et al. as a heat transfer factor λ. The recording was performed with thermoprobes using a two-channel Pluvograph of Hartmann & Braun, Frankfurt am Main, Germany. Other circulation parameters recorded at the same time were fed to a Hellige multi-channel recorder.

[4] = Toxicity in mg/kg (mouse); settings: in vivo
cerebral blood flow = assay: Cerebral blood flow, statements in the description; format: in vivo; settings: in words

Row | Compound | water solubility and/or toxicity versus theobromine, theophylline and trialkylxanthines [1] | pharmacological activity [2] | Change of blood perfusion half-value time ([3]; 5 mg/kg i.v.) [min] | Change of blood perfusion Δ λ ([3]; 5 mg/kg i.v.) | Change of blood perfusion half-value time ([3]; 10 mg/kg i.v.) [min] | Change of blood perfusion Δ λ ([3]; 10 mg/kg i.v.) | Change of blood perfusion half-value time ([3]; 50 mg/kg i.v.) [min] | Change of blood perfusion Δ λ ([3]; 50 mg/kg i.v.) | Change of blood perfusion half-value time ([3]; 100 mg/kg i.v.) [min] | Change of blood perfusion Δ λ ([3]; 100 mg/kg i.v.) | LD50 ([4]; ip) [mg/kg] | further results
1 | CC(O)Cn1cnc2c1c(=O)n(C)c(=O)n2C (stereo not shown) [7-(2-Hydroxypropyl)-1,3-dimethyl-xanthine] | greater degree of water solubility and/or lower toxicity than theobromine,theophylline and trialkylxanthines | reduced pharmacological activity |  |  |  |  |  |  |  |  |  | 
2 | Cn1c(=O)c2c(ncn2CCO)n(C)c1=O [7-(2-hydroxyethyl)-1,3-dimethylxanthine] |  |  | 0.23 | -0.50 | 0.50 | -1.33 | 7.17 | -5.33 | 8.00 | -6.00 |  | Change of blood perfusion half-value time ([3]; 25 mg/kg i.v.): 6.73 min; Change of blood perfusion Δ λ ([3]; 25 mg/kg i.v.): -2.17
3 | Cn1c(=O)c2c(ncn2CC(O)CO)n(C)c1=O (stereo not shown) [7-(2,3-dihydroxypropyl)-1,3-dimethylxanthine] | greater degree of water solubility and/or lower toxicity than theobromine,theophylline and trialkylxanthines | reduced pharmacological activity |  |  | 1.7 |  | 3.0 | +0.20 | 3.0 | -0.05 |  | Change of blood perfusion half-value time ([3]; 25 mg/kg i.v.): 6.0 min; Change of blood perfusion Δ λ ([3]; 25 mg/kg i.v.): -0.23
4 | Cn1c(=O)c2[nH]cnc2n(C)c1=O.NCCN [theophylline-ethylenediamine, 1,3-dimethylxanthine-ethylene-diamine] |  |  | 3.3 | +0.18 | 1.7 | +0.53 |  |  |  |  | 217 | Change of blood perfusion half-value time ([3]; 1 mg/kg i.v.): 1.8 min; Change of blood perfusion Δ λ ([3]; 1 mg/kg i.v.): +0.19; Change of blood perfusion half-value time ([3]; 2 mg/kg i.v.): 1.8 min; Change of blood perfusion Δ λ ([3]; 2 mg/kg i.v.): +0.15; action on cerebral blood flow (cerebral blood flow): increases the cerebral blood flow, but only to a limited extent and only for a short time
5 | CC(O)CCCCn1c(=O)c2c(ncn2C)n(C)c1=O (stereo not shown) [1-(5-hydroxyhexyl)-3,7-dimethylxanthine] |  |  | 5.0 | +1.55 | 3.5 | +2.65 |  |  |  |  |  | LD50 ([4]; iv): 195 mg/kg; Change of blood perfusion half-value time ([3]; 3 mg/kg i.v.): 4.3 min; Change of blood perfusion Δ λ ([3]; 3 mg/kg i.v.): +1.80
6 | CC(O)CCCCn1cnc2c1c(=O)n(C)c(=O)n2C (stereo not shown) [1,3-dimethyl-7-(5-hydroxyhexyl)-xanthine] |  |  | 1.8 | +0.18 |  |  |  |  |  |  | 250 to 500 | 
7 | CC(O)Cn1c(=O)c2c(ncn2C)n(C)c1=O (stereo not shown) [1-(2-hydroxypropyl)-3,7-dimethylxanthine] | greater degree of water solubility and/or lower toxicity than theobromine,theophylline and trialkylxanthines | reduced pharmacological activity | 0.50 | -0.25 | 1.50 | -0.50 | 17.5 | -5.25 | 6.5 | -10.00 |  | 
8 | CC(O)CCCCCn1cnc2c1c(=O)n(C)c(=O)n2C (stereo not shown) [1,3-dimethyl-7-(6-hydroxyheptyl)-xanthine] |  |  | 1.8 | +1.17 |  |  |  |  |  |  | 250 to 500 | Change of blood perfusion half-value time ([3]; 1 mg/kg i.v.): 0.6 min; Change of blood perfusion Δ λ ([3]; 1 mg/kg i.v.): +0.70; Change of blood perfusion half-value time ([3]; 2 mg/kg i.v.): 1.2 min; Change of blood perfusion Δ λ ([3]; 2 mg/kg i.v.): +0.42
